Data reported in PMC11188305, “Reproductive and fetal toxicity studies of histamine H3 receptor antagonist DL76 used in mice to prevent maximal electroshock-induced seizure” (Frontiers in Pharmacology, 2024).

Test system: C57/B6 mouse embryos
Experiment: Reproductive studies: maternal, fetal and gross/visceral malformation observations after treatment on GD-8 or GD-13
Assay type: in vivo
Conditions: for Number of female embryos / Number of male embryos: number (percentage); for Exomphalos / Eye open / Kinky tail / Left/right kidney hypo/descended / Mandible hypoplasia / Maxilla hypoplasia / Microtia/low set microtia / Undescended testis: number of embryos (percentage); for Live fetus/litter / Resorption/litter: parentheses contain percentages; for Placental weight, IUGR −2SD: fraction (percentage); for Fetal weight, IUGR −1SD / Fetal weight, IUGR −2SD: fraction of fetuses (percentage)
Description: Reproductive studies were conducted in adult female mice, averaging 30 gm in weight and 6 weeks in age ([Padmanabhan et al., 2006]; [Bastaki et al., 2018]). Following successful mating, indicated by vaginal plug observation, the plug-positive day was considered gestation day 0 (GD-0). DL76 was administered at various doses (7.5 mg/kg, 15 mg/kg, 30 mg/kg, and 60 mg/kg) through single i.p. injections and three 15 mg/kg injections in 1 day to mouse groups on GD-8 and GD-13 (Tables 1, 2). The control group was injected with normal saline. Appropriate formation of different organs occurs in specific periods of the development of the mouse. These two periods were selected because GD-8 is known to be a critical period for the induction of neural tube defects, craniofacial malformations, and the development of other organs, whereas on GD-13, the retina and other parts are being formed, and most other organs have been formed. The number of implantations, fetal deaths, and resorptions was recorded. Fetal and placental weights were documented separately. After blotting dry, the fetuses were weighed and fixed in 95% ethanol. The reproductive toxicological effects of DL76 were assessed by observing gross and visceral malformations, following [Sterz and Lehmann (1985)], [Abdulrazzaq et al. (1997)], [Padmanabhan et al. (2003)], and [Padmanabhan et al. (2006)].
Deformities of the embryos were identified according to a modified method of [Sterz and Lehmann (1985)], [Abdulrazzaq et al. (1997)], and [Bass et al. (2020)]. Accordingly, the embryos were removed from the 95% ethanol, and the lower part of the abdomen was cut using a razor blade. All organs were checked for abnormalities with a stereo dissecting microscope, and finally, the organs were removed by using forceps.
Statistical analyses employed SPSS 26.0 (IBM Middle East, Dubai, UAE). Data were presented as means ± SEM. […] Fetal abnormality data were presented as counts and percentages. Fisher’s exact test compared the percentages of abnormalities between the control group (saline) and the different dose groups. All tests were two-tailed, and significance was set at p < 0.05.

CC(C)(C)c1ccc(OCCCN2CCCCC2)cc1 [DL76, 1-(3-(4-tert-butyl-phenoxy)propyl) piperidine]
Number of female embryos (30 mg/kg i.p. on GD-13): 24 (55.8)
Number of male embryos (30 mg/kg i.p. on GD-13): 19 (44.2)
Exomphalos (30 mg/kg i.p. on GD-13): 1 (2.3)
Eye open (30 mg/kg i.p. on GD-13): 0
Kinky tail (30 mg/kg i.p. on GD-13): 0
Left/right kidney hypo/descended (30 mg/kg i.p. on GD-13): 1 (2.3)
Mandible hypoplasia (30 mg/kg i.p. on GD-13): 3 (7.0)
Maxilla hypoplasia (30 mg/kg i.p. on GD-13): 2 (4.7)
Microtia/low set microtia (30 mg/kg i.p. on GD-13): 1 (2.3)
Undescended testis (30 mg/kg i.p. on GD-13): 0
Live fetus/litter (30 mg/kg i.p. on GD-13): 6.143 (87.76)
Resorption/litter (30 mg/kg i.p. on GD-13): .857 (12.24)
Fetal weight/Litter (g) (Mean ± SD) (60 mg/kg i.p. on GD-8): 1.048 ± .0156 g
Fetuses/litter (60 mg/kg i.p. on GD-8): 7.286 ± 1.380
Placental weight/Litter (g) (mean ± SD) (60 mg/kg i.p. on GD-8): 0.101 ± 0.010 g
Placental weight, IUGR −2SD (60 mg/kg i.p. on GD-8): 0
Fetal weight, IUGR −1SD (60 mg/kg i.p. on GD-8): 0
Number of female embryos (60 mg/kg i.p. on GD-8): 21 (45.7)
Number of male embryos (60 mg/kg i.p. on GD-8): 25 (54.3)
Exomphalos (60 mg/kg i.p. on GD-8): 0
Eye open (60 mg/kg i.p. on GD-8): 1 (2.2)
Kinky tail (60 mg/kg i.p. on GD-8): 0
Left/right kidney hypo/descended (60 mg/kg i.p. on GD-8): 2 (4.3)
Mandible hypoplasia (60 mg/kg i.p. on GD-8): 4 (8.7)
Maxilla hypoplasia (60 mg/kg i.p. on GD-8): 2 (4.3)
Microtia/low set microtia (60 mg/kg i.p. on GD-8): 2 (4.3)
Undescended testis (60 mg/kg i.p. on GD-8): 0
Live fetus/litter (60 mg/kg i.p. on GD-8): 6.571 (90.20)
Resorption/litter (60 mg/kg i.p. on GD-8): 0.714 (9.80)
Fetal weight Litter (g) (Mean ± SD) (60 mg/kg i.p. on GD-13): 1.051 ± 0.122 g
Fetuses/litter (60 mg/kg i.p. on GD-13): 7.000 ± 1.414
Placental weight/Litter (g) (mean ± SD) (60 mg/kg i.p. on GD-13): 0.097 ± 0.010 g
Fetal weight, IUGR −1SD (60 mg/kg i.p. on GD-13): 0
Fetal weight, IUGR −2SD (60 mg/kg i.p. on GD-13): 0
Number of female embryos (60 mg/kg i.p. on GD-13): 17 (53.1)
Number of male embryos (60 mg/kg i.p. on GD-13): 15 (46.9)
Exomphalos (60 mg/kg i.p. on GD-13): 0
Eye open (60 mg/kg i.p. on GD-13): 2 (6.3)
Kinky tail (60 mg/kg i.p. on GD-13): 0
Left/right kidney hypo/descended (60 mg/kg i.p. on GD-13): 2 (6.3)
Mandible hypoplasia (60 mg/kg i.p. on GD-13): 2 (6.3)
Maxilla hypoplasia (60 mg/kg i.p. on GD-13): 2 (6.3)
Microtia/low set microtia (60 mg/kg i.p. on GD-13): 2 (6.3)
Undescended testis (60 mg/kg i.p. on GD-13): 2 (6.3)
Live fetus/litter (60 mg/kg i.p. on GD-13): 5.333 (76.19)
Resorption/litter (60 mg/kg i.p. on GD-13): 1.667 (23.81)
Fetal weight/Litter (g) (Mean ± SD) (3 × 15-dose i.p. on GD-8): 1.037 ± 0.101 g
Fetuses/litter (3 × 15-dose i.p. on GD-8): 8.143 ± 0.690
Placental weight/Litter (g) (mean ± SD) (3 × 15-dose i.p. on GD-8): 0.092 ± 0.007 g
Placental weight, IUGR −2SD (3 × 15-dose i.p. on GD-8): 0
Fetal weight, IUGR −2SD (3 × 15-dose i.p. on GD-8): 0
Number of female embryos (3 × 15-dose i.p. on GD-8): 24 (51.1)
Number of male embryos (3 × 15-dose i.p. on GD-8): 23 (48.9)
Exomphalos (3 × 15-dose i.p. on GD-8): 0
Eye open (3 × 15-dose i.p. on GD-8): 4 (8.5)
Kinky tail (3 × 15-dose i.p. on GD-8): 0
Left/right kidney hypo/descended (3 × 15-dose i.p. on GD-8): 2 (4.3)
Mandible hypoplasia (3 × 15-dose i.p. on GD-8): 3 (6.4)
Maxilla hypoplasia (3 × 15-dose i.p. on GD-8): 2 (4.3)
Microtia/low set microtia (3 × 15-dose i.p. on GD-8): 2 (4.3)
Undescended testis (3 × 15-dose i.p. on GD-8): 1 (2.1)
Live fetus/litter (3 × 15-dose i.p. on GD-8): 6.714 (82.46)
Resorption/litter (3 × 15-dose i.p. on GD-8): 1.429 (17.54)
Fetal weight Litter (g) (Mean ± SD) (3 × 15-dose i.p. on GD-13): 1.051 ± 0.031 g
Fetuses/litter (3 × 15-dose i.p. on GD-13): 8.286 ± 1.704
Placental weight/Litter (g) (mean ± SD) (3 × 15-dose i.p. on GD-13): 0.110 ± 0.012 g
Placental weight, IUGR −2SD (3 × 15-dose i.p. on GD-13): 0
Fetal weight, IUGR −1SD (3 × 15-dose i.p. on GD-13): 0
Fetal weight, IUGR −2SD (3 × 15-dose i.p. on GD-13): 0
Number of female embryos (3 × 15-dose i.p. on GD-13): 24 (50.0)
Number of male embryos (3 × 15-dose i.p. on GD-13): 24 (50.0)
Exomphalos (3 × 15-dose i.p. on GD-13): 1 (2.1)
Eye open (3 × 15-dose i.p. on GD-13): 6 (12.5)
Kinky tail (3 × 15-dose i.p. on GD-13): 1 (2.1)
Left/right kidney hypo/descended (3 × 15-dose i.p. on GD-13): 2 (4.2)
Mandible hypoplasia (3 × 15-dose i.p. on GD-13): 3 (6.3)
Maxilla hypoplasia (3 × 15-dose i.p. on GD-13): 3 (6.3)
Microtia/low set microtia (3 × 15-dose i.p. on GD-13): 3 (6.3)
Undescended testis (3 × 15-dose i.p. on GD-13): 0
Live fetus/litter (3 × 15-dose i.p. on GD-13): 6.857 (82.76)
Resorption/litter (3 × 15-dose i.p. on GD-13): 1.429 (17.24)
mean fetal weight in each litter, treatment groups vs controls (GD-8 and GD-13, all doses): not significantly different
mean placental weights, treated groups vs controls (GD-8 and GD-13, all doses): not significantly different
number of fetuses in each litter, between all study groups (GD-8 and GD-13, all doses): not significantly different
number of live fetuses, between all study groups (GD-8 and GD-13, all doses): not significantly different
resorption rate, between all the groups (GD-8 and GD-13, all doses): not significantly different
maternal toxicity (all groups, GD-8 and GD-13 treated animals): no sign of maternal toxicity
incidence of exencephaly and craniofacial malformations, exomphalos, microtia, open eye, palate, hydronephrosis, descended kidney, undescended testis, kinky tail (between any of the groups studied): no significant difference
average number of implantations and resorptions, control vs DL76-treated groups (early stages of gestation and organogenesis period): No significant alterations
maternal body weight vs control mice group (single 7.5, 15, 30 or 60 mg/kg i.p. or multiple doses 3 × 15 mg/kg i.p. on GD 8 or 13): failed to affect
incidence of gross morphological anomalies in treated fetuses vs control group (single- and multiple-dose groups given i.p.): not significantly different
